Assay results from the METLIN SMRT retention time set (Domingo-Almenara et al. 2019).

Assay: gradient 5% acetonitrile 3 min, to 50% in 2 min, to 85% in 15 min, held 3 min, 100 µL/min
Details: column: Zorbax Extend-C18 2.1 x 50 mm; eluents: water / acetonitrile, 0.1% formic acid
Outline: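 Retention times of pure standards were taken from adduct peaks that were selected by computer and manually inspected. Over 3 months, mixtures of ~100 molecules were run by HPLC–quadrupole time-of-flight mass spectrometry in positive and negative ionization mode. The Zorbax Extend-C18 column (2.1 × 50 mm, 1.8 μm) ran at 100 μL/min in water and acetonitrile, each containing 0.1% formic acid, with 40 μL dead volume and 900 μL dwell volume.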

SMILES	RP-LC retention time
CCOC(=O)c1ccc(NC(=O)Cn2cnc3nc(N4CCCC(C(=O)NC)C4)sc3c2=O)cc1 (centres undefined)	658 s
Cc1ccc(NC(=O)CN2C(=O)CCc3cc(S(=O)(=O)N4CCCCC4C)ccc32)cc1N(C)C (centres undefined)	676 s
CCn1c(=O)sc2cc(S(=O)(=O)N3CCC(C(=O)NC4CCCc5ccccc54)CC3)ccc21 (centres undefined)	957 s
Cc1ccc(NC(=O)N2CCCC2c2nc(-c3ccccc3C)no2)cc1C (centres undefined)	593 s
CCc1nc2sc(C(C)C)nn2c1S(=O)(=O)N1CCSCC1	962 s
CCC(CC)C(=O)N1CCN(c2nc(CN3CCOCC3)cs2)CC1	597 s
O=C(NCCOc1ccc(-c2cccs2)nn1)NCc1ccccc1	734 s
O=C1CC(Nc2ccc(N3CCCCC3)cc2)C(=O)N1c1ccccc1F (centres undefined)	571 s
COc1ccc(C2CC(=O)N(CC(=O)NCC3CCCO3)c3ccccc3S2)cc1 (centres undefined)	826 s
O=C(C1=CCN(Cc2ccccc2)CC1)N1CCN(c2cccc(Cl)c2)CC1	707 s
Cc1ccsc1CN1CC(Oc2ccc(-c3noc(-c4ccncc4)n3)cc2)C1	715 s
O=S(=O)(c1ccc(F)cc1)N1CCC(Cc2nncn2-c2ccccc2)CC1	787 s
O=C(Nc1cccc(-c2ccc(N3CCCC3)nn2)c1)Nc1c(F)cccc1F	690 s
CCN1CCN(C(=O)CCC2CCCN(c3cc(NC4CC4)ncn3)C2)CC1 (centres undefined)	555 s
CC(C)CCNC(=O)c1ccc(Cn2c(C(F)(F)F)nc3cccnc32)cc1	905 s
Cc1ccc([N+](=O)[O-])cc1S(=O)(=O)N1CCN(c2cccc(Cl)c2)CC1	618 s
Cc1nc(SCC(=O)O)n[nH]1	765 s
COCc1noc(C2CN(C(=O)CC(F)(F)F)CC23CCCC3)n1 (centres undefined)	798 s
CCOC(=O)N1CCN(C(=O)C2CCN(c3ncnc4c3oc3ccccc34)CC2)CC1	673 s
CCn1cc(CC(=O)NCc2cccc(F)c2)c2cccnc21	716 s
Cc1cc(C)nc(NS(=O)(=O)c2ccc(Nc3nc(-c4ccc(C)c(C)c4)cs3)cc2)n1	1020 s
COc1ccc(Cl)cc1NC(=O)CSc1nnc(-c2ccco2)n1-n1cccc1	885 s
Cc1cc2nn(CC(=O)NC(C)C)c(=O)n2c(-c2ccc(C(F)(F)F)cc2)n1	576 s

SMILES	RP-LC retention time
CC1CCc2nc(NC(=O)c3cc(Cl)sc3Cl)sc2C1 (centres undefined)	1170 s
COc1ccccc1CNC(=O)Cn1cncc(C)c1=O	618 s
CN(C)S(=O)(=O)c1ccc(C(=O)Nc2nc(-c3ccc4c(c3)NC(=O)CO4)cs2)cc1	810 s
COc1ccc(C(=O)Nc2cccn3cnnc23)cc1F	676 s
CCCc1nc2cccnc2n1C1CCN(C(=O)Cc2cccs2)C1 (centres undefined)	612 s
CCc1ccccc1NC(=O)N(C)CC1CCOC1 (centres undefined)	699 s
CN(C)c1cccc(-c2nc(-c3cn(Cc4cccc(F)c4)nn3)no2)c1	677 s
CCN1C(=O)c2cccnc2Sc2cc(CNC(=O)c3ccc(OC)cc3OC)ccc21	784 s
CC(=O)N1c2ccc(S(=O)(=O)NCCOc3ccc(F)cc3)cc2CC1C (centres undefined)	798 s
CCc1ccc(CNC(=O)c2nc3cccnc3n(CC(C)C)c2=O)cc1	1100 s
COc1ccc(-c2nc(NCCC(C)C)c3ccccc3n2)cc1	844 s
Cc1ccc(NC(=O)NCCc2cn(CC(C)C)c3ncccc23)c(Cl)c1	937 s
Cc1cc2nc(C(=O)N3CCN(c4ccccn4)CC3)c(=O)n(C)c2cc1C	597 s
CCOC(=O)C1CCc2sc(NC(=O)c3cc(-c4cccs4)[nH]n3)nc21 (centres undefined)	835 s
CCCN(C)c1nccn2c(=O)n(CC(=O)Nc3ccc(C)cc3Br)nc12	743 s
Cc1cccc(-c2nc(C)c(CCNC(=O)C(=O)Nc3ccc([N+](=O)[O-])cc3)s2)c1	1020 s
COc1ccc(NC(=O)NCCC2CCN(S(=O)(=O)c3ccccc3)CC2)cc1	822 s
Clc1ccc(-c2nc(-c3ccc(-n4ccnc4)nc3)no2)cc1	797 s
COc1ccc(Cl)cc1N1C=C(C#N)S(=O)(=O)c2ccccc21	918 s
Cc1[nH]c(C(=O)N2CCC(CC(=O)N3CCOCC3)CC2)c(C)c1C(=O)OC(C)C	702 s
O=C(CCn1cnc2cc(-c3noc(-c4ccc(Br)o4)n3)ccc21)N1CCCCC1	796 s
CCCN(CCC)c1nc(-c2ccc(OC)cc2)nc2ccccc12	896 s
Cc1cccc(-c2noc(C3CC(=O)N(c4ccc5c(c4)OCCO5)C3)n2)c1 (centres undefined)	980 s

SMILES	RP-LC retention time
CN1C(=O)C(CC(=O)NCc2ccccn2)Sc2ncccc21 (centres undefined)	762 s
CCCCNC(=O)C1CCCN(C(=O)c2[nH]c(C)cc2C)C1 (centres undefined)	691 s
CC(C)n1c(=O)sc2cc(S(=O)(=O)N3CCC(C(=O)NCCN4CCCC4)CC3)ccc21	648 s
CN(C)c1ccc(CNc2ccc(-c3nc(-c4ccc(F)cc4)no3)cn2)cc1	889 s
CCOC(=O)c1[nH]c(C)c(CCC(=O)NC(C)C(=O)N2CCCCC2)c1C (centres undefined)	570 s
Cc1oc2ccn(Cc3ccc(F)cc3)c(=O)c2c1C(=O)NCc1cc(F)ccc1F	1130 s
Cc1ccsc1C(=O)N1[C@H]2CC[C@@H]1c1cnc(-c3ccccc3)nc1C2	982 s
O=C(NCCn1c(C(F)(F)F)nc2cccnc21)c1ccc(Br)o1	740 s
COCc1nc(NCc2ccc(OC)c(OC)c2)ncc1C(=O)O	644 s
Cc1cccc(NC(=O)C2CCN(S(=O)(=O)c3cc(C(=O)N4CCCC4)cs3)CC2)c1C	818 s
O=C(c1ccc(OCC2CCCN2C(=O)COc2ccc(F)cc2)cc1)N1CCOCC1 (centres undefined)	778 s
CCC1CCCCN1C(=O)c1cnc2nc(C)ccc2c1Nc1ccc(OC)c(OC)c1 (centres undefined)	648 s
CN1C(=O)c2cc(S(=O)(=O)Nc3ccc(Cl)cc3)ccc2Oc2cccnc21	950 s
CCCn1c2ccccc2c2cnn(CC(=O)NCCN(C)Cc3ccccc3)c(=O)c21	699 s
Cc1ccc(NC(=O)C(=O)NCCCN2CCOCC2)cc1F	573 s
COc1ccc(-c2noc(C3CCCN3C(=O)c3ccco3)n2)cc1OC (centres undefined)	780 s
Cc1ccc(NC(=O)N(C)CC2CCOC2)cc1F (centres undefined)	722 s
COCC(=O)Nc1cnc(-c2cccc(Cl)c2)nc1	872 s
Cc1ccc(S(=O)(=O)Cc2noc(CCNS(=O)(=O)c3ccc(C)cc3)n2)cc1	875 s
Cc1nc(-c2csc(S(=O)(=O)N3CCCC(C(=O)Nc4ccc(C(C)C)cc4)C3)c2)no1 (centres undefined)	1090 s
CCOC(=O)NCCS(=O)(=O)N1CCN(c2ccc(OC)cc2)CC1	695 s
O=C(CN1CCN(Cc2ccc(F)cc2)C1=O)NCc1cc(F)ccc1F	806 s
N#Cc1ccsc1NC(=O)c1cccc(Cl)c1	861 s

SMILES	RP-LC retention time
Cc1nc(-c2cn(C)c3ncccc23)sc1C(=O)Nc1ccc(F)cc1Cl	1050 s
CCn1ccc2sc(C)c(C(=O)NCc3ccc(Br)cc3)c2c1=O	911 s
O=C1NCCCn2cc(S(=O)(=O)Nc3ccc(Oc4ccccc4)cc3)cc21	768 s
CCOC(=O)N1CCN(C(=O)Cn2nc(-c3ccccc3)cc(N)c2=O)CC1	673 s
CSc1ccc(CNC(=O)c2cc3ccncc3n2C)cc1	637 s
O=C([C@@H]1C[C@H](F)CN1S(=O)(=O)c1ccccc1F)N1CCCCC1	743 s
CCN(CC)c1ncc2c(n1)CCC(C(=O)Nc1ccc(C(=O)OC)cc1)C2 (centres undefined)	736 s
CC(C)Cn1c(=O)c(N2CCN(C(=O)NCc3ccc(F)cc3)CC2)nc2ccncc21	668 s
COc1ccc(CC(=O)N2CCN(c3cc(C)n4cnnc4n3)CC2)cc1Cl	611 s
CC(C)c1ccc(N2C=C(C(=O)N3CCOCC3)S(=O)(=O)c3ccccc32)cc1	916 s
COCCN(Cc1cccs1)C(=O)CN1C[C@H]2C[C@H](C1)[C@H]1CCCC(=O)N1C2	556 s
Cn1cc(-c2cc3n(n2)CCCN3C(=O)CCC(=O)NCc2ccccn2)c2ccccc21	629 s
O=C(NCCN1CCOCC1)c1cccc(Nc2c(-c3ccccc3)nc3cnccn23)c1	589 s
CCCN1C(=O)c2cc(S(=O)(=O)N3CCCCC3)ccc2Oc2cccnc21	1110 s
Cc1ccc2ncn(C3CCN(S(=O)(=O)c4cccc(F)c4)CC3)c(=O)c2c1	909 s
CC(C)c1nccn1C1CN(C(=O)c2ccc3[nH]ccc3c2)C1	580 s
COc1cccc(CN2CCC3(CCC3O)CC2)c1OC (centres undefined)	572 s
O=C(NCCc1ccccc1)C1CCCN(C(=O)c2cccc(C(F)(F)F)c2)C1 (centres undefined)	903 s
CCC(CO)Nc1nc(NCc2ccccc2)c2ncn(C(C)C)c2n1 (centres undefined)	630 s
COc1ccc(S(=O)(=O)N2CCc3nc(-c4ccc(Cl)cc4)ncc3C2)cc1	1100 s
